The results in this text go back to patent US20060263802A1 (priority 2003, published 2006).

Common to all, as to assay type: binding
Assay [1] concerns human monoclonal antibody CRJA.
In assay [2] the test system is human monoclonal antibody CR57.
The subject of assay [3] is human monoclonal antibody CRJB.
The subject of assay [4] is human monoclonal antibody CRJA. This is another data set of the same source.
Assay [5] deals with human monoclonal antibody CRJB. The source holds these as a separate data set.
Assay [6] deals with human monoclonal antibody CR57. This is another data set of the same source.

Turning to YEESLHNPYPDYRWL, the “Binding of CRJA to linear peptide (PEPSCAN-ELISA signal)” value (shortened to “Binding of CRJA to linear peptide”) in assay [1] came to 87. Further, in assay [2], the “Binding of CR57 (10 μg/ml) to looped/cyclic peptide (PEPSCAN-ELISA signal)” value was 98. Besides, the “Binding of CRJB (10 μg/ml) to looped/cyclic peptide (PEPSCAN-ELISA signal)” value in assay [3] is 50. Besides, the “Binding of CRJA (10 μg/ml) to looped/cyclic peptide (PEPSCAN-ELISA signal)” value in assay [4] stood at 84. In addition, the “Binding of CRJB to linear peptide (PEPSCAN-ELISA signal)” value (“Binding of CRJB to linear peptide” for short) in assay [5] amounted to 106. In addition, the “Binding of CR57 to linear peptide (PEPSCAN-ELISA signal)” value (“Binding of CR57 to linear peptide” below) in assay [6] was 58.

KWCPPDQLVNLHDFR: in assay [1], the “Binding of CRJA to linear peptide” value was found to be 97. Also, in assay [2], the “Binding of CR57 (10 μg/ml) to looped/cyclic peptide (PEPSCAN-ELISA)” value was 118. In assay [3], the “Binding of CRJB (10 μg/ml) to looped/cyclic peptide (PEPSCAN-ELISA)” value was determined as 100. The “Binding of CRJA (10 μg/ml) to looped/cyclic peptide (PEPSCAN-ELISA)” value in assay [4] was 102. Also, the “Binding of CRJB to linear peptide” value in assay [5] is listed as 113. Besides, the “Binding of CR57 to linear peptide” value in assay [6] is on record as 89.

On to PPDQLVNLHDFRSDE, for which the “Binding of CRJA to linear peptide” value in assay [1] was 118. The “Binding of CR57 (10 μg/ml) to looped/cyclic peptide (PEPSCAN-ELISA)” value in assay [2] was 101. Besides, in assay [3], the “Binding of CRJB (10 μg/ml) to looped/cyclic peptide (PEPSCAN-ELISA)” value is on record as 83. Also, the “Binding of CRJA (10 μg/ml) to looped/cyclic peptide (PEPSCAN-ELISA)” value in assay [4] is 97. Also, the “Binding of CRJB to linear peptide” value in assay [5] was determined as 120. Besides, in assay [6], the “Binding of CR57 to linear peptide” value is recorded as 107.

As for FRSDEIEHLVVEELV, the “Binding of CRJA to linear peptide” value in assay [1] was 101. The “Binding of CR57 (10 μg/ml) to looped/cyclic peptide (PEPSCAN-ELISA)” value in assay [2] is 132. In addition, in assay [3], the “Binding of CRJB (10 μg/ml) to looped/cyclic peptide (PEPSCAN-ELISA)” value is 79. For the same sequence, in assay [4], the “Binding of CRJA (10 μg/ml) to looped/cyclic peptide (PEPSCAN-ELISA)” value was 94. For the same sequence, the “Binding of CRJB to linear peptide” value in assay [5] was 114. Besides, the “Binding of CR57 to linear peptide” value in assay [6] amounted to 86.

Take ESLHNPYPDYRWLRT: in assay [1], the “Binding of CRJA to linear peptide” value turned out to be 80. In assay [2], the “Binding of CR57 (10 μg/ml) to looped/cyclic peptide (PEPSCAN-ELISA signal)” value is 123. The “Binding of CRJB (10 μg/ml) to looped/cyclic peptide (PEPSCAN-ELISA signal)” value in assay [3] stood at 92. Moreover, the “Binding of CRJA (10 μg/ml) to looped/cyclic peptide (PEPSCAN-ELISA signal)” value in assay [4] came to 106. For the same sequence, the “Binding of CRJB to linear peptide” value in assay [5] was 132. In addition, the “Binding of CR57 to linear peptide” value in assay [6] was determined as 92.

Regarding RGLYKSLKGACKLKL, in assay [1], the “Binding of CRJA to linear peptide” value was 107. Moreover, the “Binding of CR57 (10 μg/ml) to looped/cyclic peptide (PEPSCAN-ELISA)” value in assay [2] is on record as 96. Moreover, the “Binding of CRJB (10 μg/ml) to looped/cyclic peptide (PEPSCAN-ELISA)” value in assay [3] is on record as 96. Besides, in assay [4], the “Binding of CRJA (10 μg/ml) to looped/cyclic peptide (PEPSCAN-ELISA)” value was found to be 113. Moreover, the “Binding of CRJB to linear peptide” value in assay [5] was 121. The “Binding of CR57 to linear peptide” value in assay [6] came to 90.

GDEAEDFVEVHLPDV: the “Binding of human monoclonal antibody CRJA to linear peptide (PEPSCAN-ELISA signal)” value in assay [1] is recorded as 93. In assay [2], the “Binding of CR57 to looped/cyclic peptide (PEPSCAN-ELISA signal)” value is 87. Besides, the “Binding of CRJB to looped/cyclic peptide (PEPSCAN-ELISA signal)” value in assay [3] is 87. For the same sequence, the “Binding of CRJA to looped/cyclic peptide (PEPSCAN-ELISA signal)” value in assay [4] is 82. Further, in assay [5], the “Binding of human monoclonal antibody CRJB to linear peptide (PEPSCAN-ELISA signal)” value was 124. Also, the “Binding of human monoclonal antibody CR57 to linear peptide (PEPSCAN-ELISA signal)” value in assay [6] is listed as 46.

EILPSKGCLRVGGRC: the “Binding of CRJA to linear peptide” value in assay [1] is reported as 106. For the same sequence, the “Binding of CR57 (10 μg/ml) to looped/cyclic peptide (PEPSCAN-ELISA)” value in assay [2] amounted to 132. Moreover, the “Binding of CRJB (10 μg/ml) to looped/cyclic peptide (PEPSCAN-ELISA)” value in assay [3] is listed as 97. Besides, the “Binding of CRJA (10 μg/ml) to looped/cyclic peptide (PEPSCAN-ELISA)” value in assay [4] is 111. The “Binding of CRJB to linear peptide” value in assay [5] worked out at 112. Further, the “Binding of CR57 to linear peptide” value in assay [6] amounted to 104.

For LIPEMQSSLLQQHME, the “Binding of CRJA to linear peptide” value in assay [1] stood at 107. Besides, the “Binding of CR57 (10 μg/ml) to looped/cyclic peptide (PEPSCAN-ELISA)” value in assay [2] is listed as 98. Besides, in assay [3], the “Binding of CRJB (10 μg/ml) to looped/cyclic peptide (PEPSCAN-ELISA)” value came to 85. For the same sequence, the “Binding of CRJA (10 μg/ml) to looped/cyclic peptide (PEPSCAN-ELISA)” value in assay [4] is given as 91. The “Binding of CRJB to linear peptide” value in assay [5] is listed as 111. Moreover, the “Binding of CR57 to linear peptide” value in assay [6] was determined as 89.

Turning to GLYKSLKGACKLKLC, in assay [1], the “Binding of CRJA to linear peptide” value is on record as 91. Further, in assay [2], the “Binding of CR57 (10 μg/ml) to looped/cyclic peptide (PEPSCAN-ELISA)” value is 86. Further, the “Binding of CRJB (10 μg/ml) to looped/cyclic peptide (PEPSCAN-ELISA)” value in assay [3] is 97. The “Binding of CRJA (10 μg/ml) to looped/cyclic peptide (PEPSCAN-ELISA)” value in assay [4] stood at 100. Further, in assay [5], the “Binding of CRJB to linear peptide” value is 129. For the same sequence, in assay [6], the “Binding of CR57 to linear peptide” value is given as 94.

With GVVTEAENYTNFVGY, the “Binding of CRJA to linear peptide” value in assay [1] is 76. The “Binding of CR57 (10 μg/ml) to looped/cyclic peptide (PEPSCAN-ELISA signal)” value in assay [2] turned out to be 83. In addition, in assay [3], the “Binding of CRJB (10 μg/ml) to looped/cyclic peptide (PEPSCAN-ELISA signal)” value was determined as 71. Moreover, the “Binding of CRJA (10 μg/ml) to looped/cyclic peptide (PEPSCAN-ELISA signal)” value in assay [4] worked out at 90. The “Binding of CRJB to linear peptide” value in assay [5] is on record as 111. The “Binding of CR57 to linear peptide” value in assay [6] was 86.

For TFKRKHFRPTPDACR, in assay [1], the “Binding of CRJA to linear peptide” value stood at 97. In addition, the “Binding of CR57 (10 μg/ml) to looped/cyclic peptide (PEPSCAN-ELISA signal)” value in assay [2] stood at 112. Further, in assay [3], the “Binding of CRJB (10 μg/ml) to looped/cyclic peptide (PEPSCAN-ELISA signal)” value was 99. Besides, the “Binding of CRJA (10 μg/ml) to looped/cyclic peptide (PEPSCAN-ELISA signal)” value in assay [4] was found to be 105. Besides, the “Binding of CRJB to linear peptide” value in assay [5] is recorded as 111. In addition, the “Binding of CR57 to linear peptide” value in assay [6] came to 96.

On to PGFGKAYTIFNKTLM, for which the “Binding of CRJA to linear peptide” value in assay [1] is listed as 118. Besides, the “Binding of CR57 (10 μg/ml) to looped/cyclic peptide (PEPSCAN-ELISA)” value in assay [2] was 110. For the same sequence, the “Binding of CRJB (10 μg/ml) to looped/cyclic peptide (PEPSCAN-ELISA)” value in assay [3] is listed as 79. The “Binding of CRJA (10 μg/ml) to looped/cyclic peptide (PEPSCAN-ELISA)” value in assay [4] is recorded as 94. The “Binding of CRJB to linear peptide” value in assay [5] is 113. The “Binding of CR57 to linear peptide” value in assay [6] is 78.

Turning to LDPYDRSLHSRVFPS, the “Binding of CRJA to linear peptide” value in assay [1] was determined as 113. Besides, the “Binding of CR57 (10 μg/ml) to looped/cyclic peptide (PEPSCAN-ELISA signal)” value in assay [2] is 88. Further, the “Binding of CRJB (10 μg/ml) to looped/cyclic peptide (PEPSCAN-ELISA signal)” value in assay [3] amounted to 83. Besides, the “Binding of CRJA (10 μg/ml) to looped/cyclic peptide (PEPSCAN-ELISA signal)” value in assay [4] is given as 98. The “Binding of CRJB to linear peptide” value in assay [5] is given as 142. Further, the “Binding of CR57 to linear peptide” value in assay [6] is on record as 99.

Take EGCTNLSGFSYMELK: the “Binding of CRJA to linear peptide” value in assay [1] is given as 59. Further, the “Binding of CR57 (10 μg/ml) to looped/cyclic peptide (PEPSCAN-ELISA signal)” value in assay [2] is given as 39. Also, the “Binding of CRJB (10 μg/ml) to looped/cyclic peptide (PEPSCAN-ELISA signal)” value in assay [3] is on record as 73. Further, the “Binding of CRJA (10 μg/ml) to looped/cyclic peptide (PEPSCAN-ELISA signal)” value in assay [4] is reported as 38. In addition, in assay [5], the “Binding of CRJB to linear peptide” value was 114. The “Binding of CR57 to linear peptide” value in assay [6] is on record as 51.

For the sequence VHNQVSGVDLGLPNW, in assay [1], the “Binding of human monoclonal antibody CRJA to linear peptide (PEPSCAN-ELISA signal)” value is listed as 120. Further, the “Binding of CR57 to looped/cyclic peptide (PEPSCAN-ELISA signal)” value in assay [2] worked out at 125. In addition, the “Binding of CRJB to looped/cyclic peptide (PEPSCAN-ELISA signal)” value in assay [3] came to 106. Moreover, the “Binding of CRJA to looped/cyclic peptide (PEPSCAN-ELISA signal)” value in assay [4] worked out at 106. In addition, the “Binding of human monoclonal antibody CRJB to linear peptide (PEPSCAN-ELISA signal)” value in assay [5] was 119. For the same sequence, the “Binding of human monoclonal antibody CR57 to linear peptide (PEPSCAN-ELISA signal)” value in assay [6] worked out at 100.

Take SSTYCSTNHDYTIWM: the “Binding of CRJA to linear peptide” value in assay [1] stood at 71. The “Binding of CR57 (10 μg/ml) to looped/cyclic peptide (PEPSCAN-ELISA signal)” value in assay [2] came to 96. For the same sequence, the “Binding of CRJB (10 μg/ml) to looped/cyclic peptide (PEPSCAN-ELISA signal)” value in assay [3] turned out to be 66. The “Binding of CRJA (10 μg/ml) to looped/cyclic peptide (PEPSCAN-ELISA signal)” value in assay [4] is reported as 90. Besides, the “Binding of CRJB to linear peptide” value in assay [5] was found to be 107. In addition, in assay [6], the “Binding of CR57 to linear peptide” value is recorded as 76.
